Test results as given in patent US5872118A, “Bicyclic amide derivatives and their use as muscle relaxants” (Glaxo Wellcome Inc., priority 1993, dated 1999).
Like-named read-outs stand apart in the source and are kept apart here.

Key:
[1] = test system: morphine-induced Straub tail; experiment: Straub tail test (central muscle relaxant activity); assay type: in vivo; settings: Mus musculus, 1 h; mice, oral gavage 60 min prior to scoring; dose preventing Straub tail in 50% of mice; read-out: Straub Tail p.o. ED50
Experimental: Central muscle relaxant activity of compounds of formula (I) was determined using a Straub tail test based on that described by K. O. Ellis and J. F. Carpenter, Neuropharrnacol, 13, 211 (1974).
The Straub tail test result is reported as an ED50 in mg/kg. The ED50 is defined as the dose of compound administered, which prevents Straub tail in 50% of mice. The compound is administered by oral gavage 60 min. prior to scoring.
(§1) Antagonism of morphine-induced Straub tail reflects central muscle relaxant efficacy while failure in the rotorod test reflects sedation and incoordination. Determination of the ratio of rotorod failure to antagonism of morphine-induced Straub tail is a means of assessing side effect liability of central muscle relaxants (G. D. Novak, Drug Dev. Res., 2, 383 (1982).

[2] = mouse rotorod test (sedation and incoordination); settings: in vivo, po; for selectivity ratio: ratio of rotorod ED50 to Straub tail ED50, p.o.
Experimental: The side effect potential of these compounds was determined using the mouse rotorod test as described by G. D. Novak and J. M. Zwolshei, J.Pharmacological. Methods, 10, 175 (1983). Rotorod result is reported as ED50 in mg/kg. The ED50 is the dose which causes 50% of the animals to fail to maintain position on a cylinder rotating at 11 r.p.m.
as §1

[3] = test system: carrageenan-induced cell accumulation and edema formation within the rat pleural cavity; experiment: carrageenan pleurisy assay (anti-inflammatory activity); assay type: in vivo, rat (Lewis male); settings: po, fasted rats, 0.5 hr before carrageenan, 4 hr
Experimental: The rats used in these experiments were Lewis males, weighing 160-180 g, assigned to groups consisting of 5 animals. Test compounds were given to fasted rats by oral gavage 0.5 hr prior to intrapleural injection of 50 mg carrageenan. After 4 hr, the pleural exudate was collected and the edema volume and cell number were determined. ED50 values were estimated by linear regression analysis, and represent the doses at which a given drug produced 50% inhibition of carrageenan-induced cell accumulation and edema formation within the rat pleural cavity.

[4] = single dose oral toxicity; assay type: in vivo, male CD-1 mice; settings: mouse, in vivo; single oral gavage, non-fasted male CD-1 mice, seven days; read-out: maximum tolerated dose
Experimental: (§2) Single doses (15, 45, 100 or 250 mg/kg) were administered by oral gavage to groups of four non-fasted male CD-1 mice (Charles River).
(§3) Single doses (5, 15, 40, 100, 250, 500 or 1000 mg/kg) were administered by oral gavage to groups of four non-fasted male CD-1 mice (Charles River).

CD-1 mice = experiment: single dose oral toxicity; assay type: in vivo, male CD-1 mice; settings: within the seven days post dosing, single oral gavage, male CD-1 mice
Experimental: as §2, §3

[5] = test system: established adjuvant-induced polyarthritis; experiment: established adjuvant-induced polyarthritis; assay type: in vivo, rat (female Lewis); settings: 50 mg/kg b.i.d.
Experimental: The procedures for this test have been described in detail by R. Vinegar, J. F. Truax, J. L. Selph, A. Lea, and P. R. Johnston (J. Immunopharmacol. 1:497-520, 1979). The rats used in these studies were female Lewis rats whose starting weight was 190±10 g. Arthritic rats were assigned to treatment groups consisting of six animals each. Fed rats were dosed by oral gavage starting on day 21 post adjuvant injection; therapy was continued until day 28. The incidence and severity of arthritic lesions were assessed using a modification of the scoring procedure described by H. L. F. Currey and M. Ziff (J. Exp. Med. 121:185-203, 1968). Briefly, the bilateral joints were scored for erythema, edema, and ankylosis as outlined below:
The maximal possible score per rat was 40. Experimental results were analyzed by one-way ANOVA, followed by post hoc comparisons of treatment effects versus untreated arthritic control using the Newman-Keuls test. The percent inhibition of each drug-treated group was calculated from the mean relative to the arthritic control.

[6] = test system: trypsin-induced rat hind limb hyperalgesia; experiment: trypsin-induced rat hind limb hyperalgesia assay (mild analgesia); assay type: in vivo, rat (Lewis male); settings: po, fasted rats, 0.5 hours prior to trypsin, 50% inhibition of latency response
Experimental: The rats used in these studies were Lewis male, weighing 160-180 g. and assigned to groups consisting of 5-6 animals. Test compounds were given to fasted rats by oral gavage 0.5 hours prior to the subplantar injection of […] trypsin in one hind limb. One hour later the rats were evaluated for hyperalgesia using an F-shaped mechanical force clamp on the injected hind limb metatarsal area. Latency (seconds) to the algesic response (vocalization or flight) was determined, with 4 seconds being the maximum latency allowed. ED50 values were estimated by linear regression analysis and represent the dose at which a given drug extended the latency response to produce 50% inhibition using the formula: (4 sec.-Control Latency)-(4 sec.-Test Latency)/4 sec.-Control Latency×100.

[7] = test system: algesic response to mechanical force clamp on the phalanges; experiment: phalanges algesic assay (strong analgesia); assay type: in vivo, rat (Lewis male); settings: Rattus norvegicus, po, 1 h; p.o., fasted rats, one hour after dosing; 50% inhibition of latency response
Experimental: The rats used in these studies were Lewis male weighing 160-180 g and assigned to groups of 5-6 animals. The phalanges algesic assay is an algesic test (no hyperalgesia) in which test compounds were given to fasted rats by oral gavage. One hour later an F-shaped mechanical force clamp was applied to the phalanges of one hind limb which initiated an algesic response(vocalization or flight). Latency (seconds) to the algesic response was determined with 3 seconds maximum allowed time. ED50 values were estimated by linear regression analysis and represent the dose at which a given compound extended the latency response to produce 50% inhibition using the formula: (3 sec.-Control Latency)-(3 sec.-Test Latency)/3 sec.-Control Latency×100.

[8] = test system: maximal electroshock-induced convulsions; experiment: protection against maximal electroshock-induced convulsions; assay type: in vivo; settings: ip; rat, i.p.; prevention of hind limb extension in 50% of animals; read-out: ED50 MES (maximal electroshock)
Experimental: Anticonvulsant activity of compounds of formula (I) was determined using a method described by Mehta et al., J.Med.Chem., 24, 465 (1981).
The anticonvulsant activity is reported as an ED50 in mg/kg. The ED50 for protection against maximal electroshock-induced convulsions was the dose which prevented hind limb extension in 50% of the animals. The ED50 for protection against Metrazol-induced convulsions was the dose which prevented convulsions in 50% of the animals.

punished responding = experiment: anxiolytic activity, punished responding (Geller and Seifter); assay type: in vivo; settings: Rattus norvegicus, po; rats, p.o.; lowest dose producing significant increase in punished responding; read-out: MED (Minimal Effective Dose)
Experimental: Anxiolytic activity of compounds of formula (I) was measured using the method of Geller and Seifter, J.Psychopharmacolgia, 1, 482 (1960) as modified by Pollard and Howard, Psychopharmacology, 62, 117 (1979). Clinically efficacious anxiolytics increase punished responding. The anxiolytic activity of the compound is reported as the lowest dose necessary to produce a significant increase in punished responding in rats(MED).

[9] = 50% inhibition of cell accumulation, read-out: ED50 Cells
[10] = 50% inhibition of edema formation, read-out: ED50 Edema

SMILES | ED50 [1] | TD50 [2] | selectivity ratio [2] | ED50 [3, 9] | ED50 [3, 10] | MTD at 168 h [4] | deaths (CD-1 mice) | arthritic scores ([5]; days 22, 25, and 27, oral gavage) | Spleen weight ([5]; postmortem on day 27) | plasma fibrinogen ([5]; postmortem on day 27) | ED50 [6] | ED50 [7] | ED50 [8] | minimal effective dose (punished responding)
NC(=O)/C=C1\CCc2ccc(F)cc21 [Example 1, (E)-2-(6-Fluoro-1-indanylidene)acetamide] | 51 mg/kg | 88 mg/kg | 1.7 | 21 mg/kg | 20 mg/kg | > 250 mg/kg | no deaths |  |  |  |  |  |  | 
NC(=O)/C=C1\CCc2c(F)cc(F)cc21 [Example 5, (E)-2-(4,6-difluoro-1-indanylidene)acetamide] | 54 mg/kg | 79 mg/kg | 1.5 | 16 mg/kg | 12 mg/kg | > 1000 mg/kg | no deaths | significantly (p<0.01) lowered | significantly reduced (p<0.01) | significantly reduced (p<0.01) | 4 mg/kg | 22 mg/kg |  | 
O=C(/C=C1\CCCc2ccc(F)cc21)NC1CC1 [Example 13, (E)-N-Cyclopropyl-2-(7-fluoro-1,2,3,4-tetrahydro-1-naphthylidene)acetamide] |  |  |  |  |  |  |  |  |  |  |  |  | 25 mg/kg | 3.13 mg/kg
